Experimental data: patent US20200008426A1, “ACTIVE COMPOUND COMBINATIONS” (BAYER AKTIENGESELLSCHAFT, priority 2017, published 2020)
Where “and” joins values, the source holds several entries; their conditions need not be identical. Equal values may be shown once. Read-outs that look alike come from different tables or passages of the source.

What was measured:
Septoria tritici = assay: In vivo preventive Septoria tritici test (wheat); details: 21 days after inoculation
Procedure: After the spray coating has been dried, the plants are sprayed with a spore suspension of Septoria tritici.
The test is evaluated 21 days after the inoculation.

[1] = tested on: fish (Danio rerio) embryos; assay: In vivo ecotoxicity screening test on fish (Danio rerio); details: active compound alone; fish embryos, 96 h, 28.5° C.
Procedure: with ECxi the Effect Concentration (EC) of each chemical i (in ppm) causing x % effect on the ecotoxicity test endpoint.
For each compound combination, the predicted ECx value is calculated. It is then compared to an experimentally measured value. The ratio of predicted versus measured effect for the combination (thereafter called the Model Deviation Ratio or MDR) is then calculated.
The environmental effect of the compound combinations was measured experimentally in laboratory ecotoxicity screening studies with fish (Danio rerio). […] Mortality was recorded after 96 h for each tested concentration and a reference control. […] Then, the MDR values were calculated.
• Solvent: 0.5% by weight dimethyl sulfoxide
This concentrate is then diluted with water to the desired a.i. concentration, leading to a maximal solvent concentration of 0.5% by weight. The compounds alone and the combinations were tested for five increasing concentrations between 0.01 and 1000 ppm a.i., (e.g. 0.1, 1.0, 10 and 100 ppm a.i). For the combinations, compounds A and B were mixed in a weight ratio of 5:1 to 1:5 and five increasing concentrations were tested for each ratio.

Puccinia triticina = assay: In vivo preventive Puccinia triticina test (wheat); details: 8 days after inoculation
Procedure: After the spray coating has been dried, the plants are sprayed with a spore suspension of Puccinia triticina.
(§1) The test is evaluated 8 days after the inoculation.

Pyricularia oryzae = format: cell-based
Alternaria solani = assay: In vivo preventive test on Alternaria (tomatoes)
Procedure: The plants are then placed in an incubation cabinet at approximately 20° C. and a relative atmospheric humidity of 100%.
(§2) The test is evaluated 3 days after the inoculation.

Phakopsora pachyrhizi = assay: In vivo preventive test on Phakopsora (soybeans); details: 7 days after inoculation
Colletotrichum coccodes = assay: In vivo preventive test on Colletotrichum (tomatoes); details: 3 days after inoculation
Procedure: as §2

Venturia inaequalis = assay: In vivo preventive test on Venturia (apples); details: 10 days after inoculation
Procedure: The test is evaluated 10 days after the inoculation.

Alternaria alternata = assay: In vitro-Test with Alternaria alternata; format: cell-based
Sphaerotheca fuliginea = assay: In vivo preventive test on Sphaerotheca (cucumbers); details: Table D1, 7 days after inoculation
Leptosphaeria nodorum = assay: In vivo preventive Leptosphaeria nodorum test (wheat); details: Table G1, 8 days after inoculation
Procedure: After the spray coating has been dried, the plants are sprayed with a spore suspension of Leptosphaeria nodorum.
as §1

Pyrenophora teres = assay: In vitro-Test with Pyrenophora teres; format: cell-based; details: 100 ppm
[2] = Alternaria solani, 72 h, read-out: Efficacy in % found

Molecule: Cc1nn(C)c(F)c1C(=O)Nc1ccccc1C(C)CC(C)C (centres unmarked) [Example 2.017, penflufen]
- Efficacy in % found (Septoria tritici; 20 ppm a.i.): 29%
- Efficacy in % found (Septoria tritici; 40 ppm a.i.): 0%
- Efficacy in % found (Septoria tritici; 80 ppm a.i.): 0%
- Ecotoxicity LC50-96 h found [1]: 0.62 ppm a.i.
- Efficacy in % found (Puccinia triticina; 20 ppm a.i.): 56%
- Efficacy in % found (Puccinia triticina; 40 ppm a.i.): 89%
- Efficacy in % found (Puccinia triticina; 80 ppm a.i.): 100%
- Efficacy % (Pyricularia oryzae; 1 ppm): 44%
- Efficacy % (Pyricularia oryzae; 5 ppm): 91%

Molecule: CCCN(CC)CC1COC2(CCC(C(C)(C)C)CC2)O1 (centres unmarked) [1.020 spiroxamine, spiroxamine]
- Efficacy in % found (Alternaria solani; Table A1, 25 ppm a.i., 3 days after inoculation): 13%
- Efficacy in % found (Alternaria solani; Table A1, 50 ppm a.i., 3 days after inoculation): 38%
- Efficacy in % found (Alternaria solani; Table A1, 100 ppm a.i., 3 days after inoculation): 49%
- Efficacy in % found (Phakopsora pachyrhizi; Table C1, 25 ppm a.i.): 23%
- Efficacy in % found (Phakopsora pachyrhizi; Table C1, 50 ppm a.i.): 50%
- Efficacy in % found (Phakopsora pachyrhizi; Table C1, 100 ppm a.i.): 75%
- Efficacy in % found (Colletotrichum coccodes; Table B1, 25 ppm a.i.): 33%
- Efficacy in % found (Colletotrichum coccodes; Table B1, 50 ppm a.i.): 44%
- Efficacy in % found (Colletotrichum coccodes; Table B1, 100 ppm a.i.): 49%

Molecule: N#Cc1c[nH]cc1-c1cccc2c1OC(F)(F)O2 [Example 13.001, fludioxonil]
- pest or weed control at 20 ppm (Septoria tritici; Zymoseptoria tritici, 504 h, read-out: Efficacy in % found, 20 ppm a.i.): 29%
- pest or weed control at 40 ppm (Septoria tritici; Zymoseptoria tritici, 504 h, read-out: Efficacy in % found, 40 ppm a.i.): 29%
- pest or weed control at 80 ppm (Septoria tritici; Zymoseptoria tritici, 504 h, read-out: Efficacy in % found, 80 ppm a.i.): 29%
- Ecotoxicity LC50-96 h found [1]: 0.89 ppm a.i.
- pest or weed control at 20 ppm (Puccinia triticina; Puccinia triticina, 192 h, read-out: Efficacy in % found, 20 ppm a.i.): 0%
- pest or weed control at 40 ppm (Puccinia triticina; Puccinia triticina, 192 h, read-out: Efficacy in % found, 40 ppm a.i.): 0%
- pest or weed control at 80 ppm (Puccinia triticina; Puccinia triticina, 192 h, read-out: Efficacy in % found, 80 ppm a.i.): 0%
- pest or weed control at 20 ppm (Puccinia triticina; Puccinia triticina, 192 h, read-out: Efficacy in % found, Table H1, 20 ppm a.i.): 0%
- pest or weed control at 40 ppm (Puccinia triticina; Puccinia triticina, 192 h, read-out: Efficacy in % found, Table H1, 40 ppm a.i.): 0%
- pest or weed control at 80 ppm (Puccinia triticina; Puccinia triticina, 192 h, read-out: Efficacy in % found, Table H1, 80 ppm a.i.): 22%
- Efficacy % (Pyricularia oryzae; 0.2 ppm): 82%
- Efficacy % (Pyricularia oryzae; 1 ppm): 87% and 88%
- Efficacy % (Pyricularia oryzae; 5 ppm): 89% and 79%
- Efficacy in % found (Venturia inaequalis; Table E1, 5 ppm a.i.): 8%
- Efficacy in % found (Venturia inaequalis; Table E1, 10 ppm a.i.): 4%
- Efficacy in % found (Venturia inaequalis; Table E1, 20 ppm a.i.): 4%

Molecule: CC(C)(C)C(O)(CCc1ccc(Cl)cc1)Cn1cncn1 (centres unmarked) [Example 1.021, tebuconazole]
- Efficacy in % found (Septoria tritici; 25 ppm a.i.): 0%
- Efficacy in % found (Septoria tritici; 50 ppm a.i.): 0%
- Efficacy in % found (Septoria tritici; 100 ppm a.i.): 0%
- Ecotoxicity LC50-96 h found [1]: 19.7 ppm a.i.
- Efficacy in % found (Puccinia triticina; 25 ppm a.i.): 22%
- Efficacy in % found (Puccinia triticina; 50 ppm a.i.): 78%
- Efficacy in % found (Puccinia triticina; 100 ppm a.i.): 89%
- Efficacy % (Alternaria alternata; 0.04 ppm): 19%
- Efficacy % (Alternaria alternata; 0.2 ppm): 24%
- Efficacy % (Alternaria alternata; 1 ppm): 36%
- Efficacy in % found (Sphaerotheca fuliginea; 2.5 ppm a.i.): 37%
- Efficacy in % found (Sphaerotheca fuliginea; 5 ppm a.i.): 69%
- Efficacy in % found (Sphaerotheca fuliginea; 10 ppm a.i.): 83%
- Efficacy % (Pyricularia oryzae; 0.2 ppm): 87%
- Efficacy % (Pyricularia oryzae; 1 ppm): 87% and 89%
- Efficacy in % found (Venturia inaequalis; Table E1, 2.5 ppm a.i.): 4%
- Efficacy in % found (Venturia inaequalis; Table E1, 5 ppm a.i.): 34%
- Efficacy in % found (Venturia inaequalis; Table E1, 10 ppm a.i.): 44%

Molecule: O=C(Cc1ccccc1)N/C(=N\OCC1CC1)c1c(C(F)(F)F)ccc(F)c1F [Example 15.008, cyflufenamid]
- Efficacy in % found (Septoria tritici; 250 ppm a.i.): 14%
- Efficacy in % found (Septoria tritici; 500 ppm a.i.): 29%
- Efficacy in % found (Septoria tritici; 1000 ppm a.i.): 29%
- Ecotoxicity LC50-96 h found [1]: 5.2 ppm a.i.
- Efficacy in % found (Leptosphaeria nodorum; 250 ppm a.i.): 0%
- Efficacy in % found (Leptosphaeria nodorum; 500 ppm a.i.): 0%
- Efficacy in % found (Leptosphaeria nodorum; 1000 ppm a.i.): 0%
- Efficacy in % found (Puccinia triticina; 250 ppm a.i.): 0%
- Efficacy in % found (Puccinia triticina; 500 ppm a.i.): 0%
- Efficacy in % found (Puccinia triticina; 1000 ppm a.i.): 22%
- Efficacy % (Pyricularia oryzae; 4 ppm): 17%
- Efficacy % (Pyricularia oryzae; 20 ppm): 91%
- Efficacy in % found (Venturia inaequalis; Table E2, 5 ppm a.i.): 0%
- Efficacy in % found (Venturia inaequalis; Table E2, 10 ppm a.i.): 0%
- Efficacy in % found (Venturia inaequalis; Table E2, 20 ppm a.i.): 4%

Molecule: COc1ccnc(C(=O)N[C@H]2COC(=O)[C@H](Cc3ccccc3)[C@@H](OC(=O)C(C)C)[C@H](C)OC2=O)c1OCOC(=O)C(C)C [Example 3.025, (3S,6S,7R,8R)-8-benzyl-3-[({3-[(isobutyryloxy)methoxy]-4-methoxypyridin-2-yl}carbonyl)amino]-6-methyl-4,9-dioxo-1,5-dioxonan-7-yl 2-methylpropanoate]
- pest or weed control at 37.5 ppm (Septoria tritici; Zymoseptoria tritici, 504 h, read-out: Efficacy in % found, 37.5 ppm a.i.): 13%
- pest or weed control at 150 ppm (Septoria tritici; Zymoseptoria tritici, 504 h, read-out: Efficacy in % found, 150 ppm a.i.): 63%
- pest or weed control at 5 ppm (Alternaria solani; [2]): 18%
- pest or weed control at 10 ppm (Alternaria solani; [2]): 18%
- pest or weed control at 20 ppm (Alternaria solani; [2]): 58%
- Ecotoxicity LC50-96 h found [1]: 1.87 ppm a.i.
- pest or weed control at 37.5 ppm (Puccinia triticina; Puccinia triticina, 192 h, read-out: Efficacy in % found, Table H1, 37.5 ppm a.i.): 22%
- pest or weed control at 75 ppm (Puccinia triticina; Puccinia triticina, 192 h, read-out: Efficacy in % found, Table H1, 75 ppm a.i.): 67%
- pest or weed control at 150 ppm (Puccinia triticina; Puccinia triticina, 192 h, read-out: Efficacy in % found, Table H1, 150 ppm a.i.): 89%
- Efficacy in % found (Phakopsora pachyrhizi; Table C2, 5 ppm a.i.): 23%
- Efficacy in % found (Phakopsora pachyrhizi; Table C2, 10 ppm a.i.): 40%
- Efficacy in % found (Phakopsora pachyrhizi; Table C2, 20 ppm a.i.): 63%
- Efficacy % (Pyricularia oryzae; 0.8 ppm): 91% and 67%
- Efficacy % (Pyricularia oryzae; 4 ppm): 84% and 85%
- Efficacy % (Pyricularia oryzae; 20 ppm): 100% and 72%
- Efficacy % (Pyrenophora teres): 10%

Molecule: N#Cc1c(Cl)c(Cl)c(Cl)c(C#N)c1Cl [5.004 chlorothalonil, chlorothalonil]
- pest or weed control at 25 ppm (Alternaria solani; Alternaria solani, 72 h, 25 ppm a.i., tomatoes, 3 days after inoculation, read-out: Efficacy in % found): 13%
- pest or weed control at 50 ppm (Alternaria solani; Alternaria solani, 72 h, 50 ppm a.i., tomatoes, 3 days after inoculation, read-out: Efficacy in % found): 33%
- Efficacy in % found (Colletotrichum coccodes; Table B2, 25 ppm a.i.): 8%
- Efficacy in % found (Colletotrichum coccodes; Table B2, 50 ppm a.i.): 8%

Molecule: COCC(=O)N(c1c(C)cccc1C)C(C)C(=O)OC (centres unmarked) [Example 12.003, metalaxyl]
- Efficacy in % found (Septoria tritici; 250 ppm a.i.): 0%
- Efficacy in % found (Septoria tritici; 500 ppm a.i.): 0%
- Efficacy in % found (Septoria tritici; 1000 ppm a.i.): 0%
- Ecotoxicity LC50-96 h found [1]: >200 ppm a.i.
- Efficacy in % found (Leptosphaeria nodorum; 250 ppm a.i.): 29%
- Efficacy in % found (Leptosphaeria nodorum; 500 ppm a.i.): 0%
- Efficacy in % found (Leptosphaeria nodorum; 1000 ppm a.i.): 0%
- Efficacy in % found (Puccinia triticina; 1000 ppm a.i.): 30% and 44%
- Efficacy in % found (Phakopsora pachyrhizi; Table C3, 50 ppm a.i.): 0%
- Efficacy in % found (Phakopsora pachyrhizi; Table C3, 100 ppm a.i.): 0%
- Efficacy in % found (Phakopsora pachyrhizi; Table C3, 200 ppm a.i.): 23%
- Efficacy in % found (Venturia inaequalis; Table E2, 50 ppm a.i.): 11%
- Efficacy in % found (Venturia inaequalis; Table E2, 100 ppm a.i.): 11%
- Efficacy in % found (Venturia inaequalis; Table E2, 200 ppm a.i.): 19%

Molecule: mancozeb [5.013 mancozeb]
- Efficacy in % found (Alternaria solani; 12.5 ppm a.i., tomatoes, 3 days after inoculation): 28%
- Efficacy in % found (Alternaria solani; 25 ppm a.i., tomatoes, 3 days after inoculation): 33%
- Efficacy in % found (Alternaria solani; 50 ppm a.i., tomatoes, 3 days after inoculation): 77%
- Efficacy in % found (Colletotrichum coccodes; Table B2, 12.5 ppm a.i.): 0%
- Efficacy in % found (Colletotrichum coccodes; Table B2, 25 ppm a.i.): 0%
- Efficacy in % found (Colletotrichum coccodes; Table B2, 50 ppm a.i.): 0%

Molecule: O=C(Nc1ccccc1)N(Cc1ccc(Cl)cc1)C1CCCC1 [4.005 pencycuron, pencycuron]
- pest or weed control at 25 ppm (Alternaria solani; Alternaria solani, 72 h, Table A1, 25 ppm a.i., 3 days after inoculation, read-out: Efficacy in % found): 5%
- pest or weed control at 50 ppm (Alternaria solani; Alternaria solani, 72 h, Table A1, 50 ppm a.i., 3 days after inoculation, read-out: Efficacy in % found): 21%
- pest or weed control at 100 ppm (Alternaria solani; Alternaria solani, 72 h, Table A1, 100 ppm a.i., 3 days after inoculation, read-out: Efficacy in % found): 33%
- Efficacy in % found (Colletotrichum coccodes; Table B1, 25 ppm a.i.): 33%
- Efficacy in % found (Colletotrichum coccodes; Table B1, 50 ppm a.i.): 33%
- Efficacy in % found (Colletotrichum coccodes; Table B1, 100 ppm a.i.): 33%
